3 compounds from patent US9018237B2, “Methods for improved wound closure employing olivamine and endothelial cells” (priority 2009, dated 2015) can be followed below.

The subject of this assay is human microvascular endothelial cells. Briefly: in vitro model of wound healing (cell migration), time for 50% of wound to heal. The class given is cell-based. The text has this: The time for wounds to heal by 50% under the various treatment conditions was quantified.

Each structure is given as a SMILES string.

As for `OCCc1ccc(O)c(O)c1` [Hydroxytyrosol], the “less effective in wound healing than the present art” value (hydroxytyrosol alone versus the combination (Table 1)) is on record as 30%. With `NCCS(=O)(=O)O` [L-Taurine], the “Time for 50% wound to heal” value (Table 9, single ingredients, Present Art and Present Art without one ingredient) was 22.5 h.

`CC(=O)N[C@@H](CS)C(=O)O` [N-acetylcysteine, reference compound]: the “effect on time and extent of wound healing (in words)” value (compared to untreated or to the additive effect of the compounds) is “increased the time to 50% healing compared to untreated”.
